Measurements as given in ChEMBL document CHEMBL5360593, “Rare Caulamidine Hexacyclic Alkaloids from the Marine Ascidian Polyandrocarpa sp” (J Nat Prod, 2023).
Calls of active or inactive are those of the source. No cut-off for these calls is given here.

What follows are molecules tested against E3 ubiquitin-protein ligase CBL-B (Homo sapiens) (UniProt Q13191) (assay: Inhibition of CBLB (unknown origin) using biotinylated ubiquitin as substrate at 20 uM incubated for 1 hr by microplate analysis).
E3 ubiquitin-protein ligase CBL-B (Homo sapiens), sequence (Q13191 whole entry): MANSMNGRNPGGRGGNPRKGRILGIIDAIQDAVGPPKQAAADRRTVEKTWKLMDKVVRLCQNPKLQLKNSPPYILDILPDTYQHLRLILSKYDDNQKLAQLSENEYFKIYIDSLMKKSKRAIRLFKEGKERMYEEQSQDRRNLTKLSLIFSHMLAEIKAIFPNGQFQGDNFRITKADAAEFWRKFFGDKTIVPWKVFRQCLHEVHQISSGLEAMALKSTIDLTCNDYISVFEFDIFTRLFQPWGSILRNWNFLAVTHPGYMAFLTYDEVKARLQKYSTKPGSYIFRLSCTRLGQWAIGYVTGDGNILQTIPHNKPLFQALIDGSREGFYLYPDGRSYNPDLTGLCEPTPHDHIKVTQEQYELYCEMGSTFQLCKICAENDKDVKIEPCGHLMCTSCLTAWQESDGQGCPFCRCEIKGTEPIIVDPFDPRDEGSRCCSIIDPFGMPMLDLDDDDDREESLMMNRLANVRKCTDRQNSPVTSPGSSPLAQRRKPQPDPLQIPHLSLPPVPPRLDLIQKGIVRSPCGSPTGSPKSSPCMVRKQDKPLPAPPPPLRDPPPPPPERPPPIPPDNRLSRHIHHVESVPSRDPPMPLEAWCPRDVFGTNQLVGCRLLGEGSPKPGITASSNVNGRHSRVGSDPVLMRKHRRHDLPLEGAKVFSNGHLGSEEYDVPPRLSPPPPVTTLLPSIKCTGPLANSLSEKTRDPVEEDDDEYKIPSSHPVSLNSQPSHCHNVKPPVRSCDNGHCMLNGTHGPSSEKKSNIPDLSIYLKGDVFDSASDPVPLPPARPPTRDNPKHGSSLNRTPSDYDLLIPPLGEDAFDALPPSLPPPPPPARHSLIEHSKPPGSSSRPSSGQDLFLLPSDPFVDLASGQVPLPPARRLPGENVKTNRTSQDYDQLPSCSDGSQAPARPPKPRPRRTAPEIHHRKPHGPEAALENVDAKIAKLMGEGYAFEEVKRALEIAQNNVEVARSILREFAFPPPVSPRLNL

| inhibition | Compound |
| --- | --- |
| inactive | CN1C[C@H](Cl)[C@]23Cc4ccc(Br)cc4N(C)C2=NC[C@@H](Cl)[C@]32C1=Nc1ccccc12 |
| inactive | CN1C[C@@H](Cl)[C@@]23C(=Nc4ccccc42)N(C)C[C@H](Cl)[C@@]32Cc3ccc(Br)cc3N=C12 |

Continued, molecule first:

| Compound | inhibition |
| --- | --- |
| CN1CC[C@]23Cc4ccc(Br)cc4N(C)C2=NC[C@@H](Cl)[C@]32C1=Nc1cc(Br)ccc12 | inactive |
| CN1C[C@@H](Cl)[C@@]23C(=Nc4ccccc42)N(C)CC[C@@]32Cc3ccc(Br)cc3N=C12 | inactive |
| CN1CC[C@]23Cc4ccc(Br)cc4N(C)C2=NC[C@@H](Cl)[C@]32C1=Nc1ccccc12 | inactive |
| CN1C[C@@H](Cl)[C@@]23C(=Nc4cc(Br)ccc42)N(C)CC[C@@]32Cc3ccc(Br)cc3N=C12 | inactive |
